Experimental findings from article PMC9400670, “Establishing the selective phospholipid membrane coordination, permeation and lysis properties for a series of ‘druggable’ supramolecular self-associating antimicrobial amphiphiles” (Chemical Science, 2022) are described below.

The data set relates to human intestinal Caco-2 cells. The data set is described as follows: Caco-2 permeability assay. It counts as in vitro ADME. As for the experimental part: Section 4: DMPK Methods and Further Discussion […]
Caco-2 Permeability studies: The permeability assay for SSA 1-6 and 10 was performed at Cyprotex Discovery Limited (Macclesfield, UK) and analysed at Cancer Research Horizons. SSA 1-6 and 10 were incubated at a final concentration of 10 uM with human intestinal Caco-2 cells at 37°C, 5% CO2 with a relative humidity of 95%. After 120 minutes the apical compartment inserts and the companion plates were separated, and the apical and basolateral samples were transferred. Incubations were conducted in duplicate and the fluorescent membrane integrity marker; Lucifer Yellow was co-incubated with the SSA compounds at the start of the assay. Compounds of known permeability were used as controls and were within acceptance criteria. Further processing is described in:
Sample preparation and liquid chromatography-mass spectrometry analysis.
Sample preparation and liquid chromatography-mass spectrometry analysis: All samples were centrifuged at 3500 rpm at 4°C for 10 min to precipitate protein and enable sampling of supernatant prior to appropriate dilution for liquid chromatography-mass spectrometry (LC-MS/MS analysis). […]
(1.5 µm, 50 x 2.1 mm) at a temperature of 40°C and a binary mobile phase gradient at a flow rate of […]
0.4 mL/min. […]
For the purpose of apparent permeability determination, samples were analysed using a Waters I-Class ultra-high-performance liquid chromatography (UHPLC) system coupled to a Waters Vion mass spectrometer (Waters, Elstree, UK). Separation of analytes was achieved used an Accucore Vanquish C18+ column (1.5 µm, 50 x 2.1 mm) at a temperature of 40°C and a binary mobile phase gradient at a flow rate of 0.4 mL/min. Initial LC conditions for SSA 1-4 comprised 66% solvent A (0.1% formic acid + 5 mM ammonium acetate in water), 33% solvent B (0.1% formic acid + 5 mM ammonium acetate in methanol); this was ramped to 63% B at 1.8 min and 95% B at 1.9 min, held for 0.5 min and then immediately returned to initial conditions and held for the remaining 0.5 min of the method. Initial LC conditions for SSA 5-10 comprised 54% solvent A (0.1% formic acid + 5 mM ammonium acetate in water), 46% solvent B (0.1% formic acid + 5 mM ammonium acetate in methanol); this was ramped to 67% B at 1.8 min and 95% B at 1.9 min, held for 0.5 min and then immediately returned to initial conditions and held for the remaining 0.5 min of the method.
Sample analysis was by electrospray ionisation in negative ion mode. The capillary voltage was 2.5 kV, desolvation gas was 600°C.
For the purpose of PK determination of SSA 5, samples were analysed using a Waters I-Class ultra-high-performance liquid chromatography (UHPLC) system coupled to a Waters Xevo TQ-XS mass spectrometer. Separation of analytes was achieved using an Accucore Vanquish C18+ column (1.5 µm, 50 x 2.1 mm) at a temperature of 40°C and a binary mobile phase gradient at a flow rate of 0.4 mL/min. Initial LC conditions comprised 54% solvent A (0.1% formic acid + 5 mM ammonium acetate in water), 46% solvent B (0.1% formic acid + 5 mM ammonium acetate in methanol); this was ramped to 67% B at 1.8 min and 95% B at 1.9 min, held for 0.5 min and then immediately returned to initial conditions and held for the remaining 0.5 min of the method. Sample analysis was by electrospray ionisation combined with multiple reaction monitoring in negative ion mode. The […]
Mean blood concentration-time profile: Within these studies SSAs 3 and 5 were dosed at 1 mg/kg, to female CD-1 mice (n=9 per SSA) via an intravenous tail vein bolus dose formulation as solutions in 2 % DMSO/98 % water. Blood taken from the mouse tail vein was extracted by protein precipitation.
SSA concentrations were calculated through UPLC-MS/MS techniques, with tolbutamide as the internal standard. The assay met the acceptance criteria with >7 calibration standards within ± 20% of nominal concentration. The lower limit of quantitation was 2 ng/mL for both compounds. PK […]
(In general: Caco-2 monolayers are a common model of the intestinal barrier.)

Where [1] appears, read: % SSA recovered from the assay after 2 hours.

Molecules are shown by their SMILES.

As to `O=C(NCS(=O)(=O)O)Nc1ccc(C(F)(F)F)cc1` [SSA 3], under setting [1], the “Recovery (A-B)” value came to 99% and the “Recovery (B-A)” value is reported as 98%. Moreover, the “Papp (B-A)” value (Caco-2, 10 uM, 120 minutes, n = 2 technical repeats) was determined as 5.6 ×10⁻⁶ cm/s. Besides, the “Papp (B-A) class” value (Caco-2, in words) is “moderate”.
